Measured values published in paper PMC3726442 (PLoS ONE, 2013).

Tests used:
estrogen receptor = conditions: cited from earlier work
[1] = cited from earlier work
[2] = Plasma concentrations of tamoxifen and its metabolites in breast cancer patients on tamoxifen, by HPLC-tandem mass spectrometry
From the text: One hundred and thirty five Caucasian patients of Spanish descent recently diagnosed with BC were recruited from the center Fundación Tejerina-Centro de Patología de la Mama (Madrid). Premenopausal and postmenopausal women were enrolled when started on TAM as standard adjuvant therapy after undergoing primary surgery, radiation and adjuvant chemotherapy. Patients were excluded if they had started TAM therapy simultaneously with either adjuvant chemotherapy or adjuvant radiation therapy (or both) or if they were undergoing other adjuvant endocrine therapies. Patients who were pregnant or breast-feeding were also excluded from the study. […] Blood samples were collected within 3 to 60 months of initiating TAM treatment.
Venous blood was collected from all 135 subjects before taking their daily 20- mg dose of TAM. Ten milliliters of heparin plasma were separated by centrifugation and immediately stored at −20°C until analysis. In addition, one milliliter of an EDTA blood sample was taken for subsequent DNA extraction and genotyping. DNA was isolated from peripheral leukocytes using a QIAamp DNA Blood Mini Kit® (Qiagen, Madrid, Spain) according to the manufacturer’s instructions. The DNA concentration was determined and adjusted to 2–20 ng/ µL.
TAM and its metabolites were separated and quantified by high-pressure liquid chromatography-tandem mass spectrometry using an Agilent HPLC 1200 system. HPLC experiments were performed using a binary pump G1312A, a G1316A column oven, G1379B degasser and an automatic injector H-ALS G1367B. Mobile phase A and phase B consisted of 0.1% formic acid in water and acetonitrile, respectively. Mobile phases A and B were pumped through a ZORBAX Eclipse XDB-C18 column (150 mm×2.1 mm I.D., 3.5 µm, Agilent USA) at a flow rate of 0.2 mL/min using the gradient shown in Table 1. Separation was conducted at 30°C. 15- µL aliquots were injected and the autosampler needle was rinsed in acetonitrile/water solution (1∶1). The total run time was 20 min. During the first 4.0 and last 2.0 min, the eluate was removed using a divert valve to avoid endogenous compounds entering the mass spectrometer.
As a detector, we used an A 6410 Triple Quadrupole mass spectrometer (Agilent Technologies, USA) equipped with a heated electrospray ionization source (Thermo Fisher Scientific, Waltham, MA, USA) operating in positive ion mode. For quantification, multiple reaction monitoring (MRM) chromatograms were acquired using Mass Hunter software version B.01.04 (Agilent Technologies, USA). Positive ions were created at atmospheric pressure. Quadrupoles operated at unit resolution (0.7 Da).
A 300- µL volume of 1% formic acid in acetonitrile containing internal standards was added to a 100- µL serum aliquot. After vortexing and centrifugation, the clear supernatant was transferred to a HybridSPE column (Supelco) and the eluents stored at 2–8°C until analysis. Samples were analyzed in triplicate.
Descriptive statistics were calculated using standard methods. Metabolic ratios were calculated as the concentration of substrate/concentration of metabolite. The non-normal distribution of data was confirmed by the Kolmogorov-Smirnov test. Levels of TAM, metabolites and ratios between genotype groups were compared using Wilcoxon-Mann-Whitney or Kruskal-Wallis tests. All statistical tests (two-sided) were performed using SPSS software (version 18.0 SPSS, Chicago, IL). Significance was set at a p<0.05.

[3] = all samples analyzed, n = 125, before daily 20 mg TAM dose

## CC/C(=C(\c1ccc(O)cc1)c1ccc(OCCNC)cc1)c1ccccc1 [Endoxifen, N-desmethyl-4-hydroxy-tamoxifen]
Estrogen receptor
  estrogen receptor affinity relative to TAM: 100 fold
[1]
  serum levels relative to 4OH-TAM: 10 fold
[2]; CYP2D6 genotype subgroups, Figure 1
  endoxifen levels in wt/wt CYP2D6 relative to v/v CYP2D6 patients: over two-fold
[2]; [3]
  mean plasma concentration (±SD): 0.02475 ± 0.01937 µg/mL
  median plasma concentration: 19.11 ng/mL
[2]; all samples, n = 125
  mean concentration relative to the 4OH-TAM mean concentration: almost three times
[2]; genotype CYP2D6 I/I, n = 1
  plasma concentration, mean ±SD: 0.00953 ± 0 µg/mL
  plasma concentration, median: 0.00953 µg/mL
  plasma concentration, range: (9.53–9.53) ng/mL
[2]; genotype CYP2D6 I/P, n = 8
  plasma concentration, mean ±SD: 0.01201 ± 0.00584 µg/mL
  plasma concentration, median: 0.01 µg/mL
  plasma concentration, range: (4.46–21.02) ng/mL
[2]; genotype CYP2D6 P/P, n = 2
  plasma concentration, mean ±SD: 0.00871 ± 0.00641 µg/mL
  plasma concentration, median: 0.00871 µg/mL
  plasma concentration, range: (4.18–13.24) ng/mL
[2]; genotype CYP2D6 wt/I, n = 4
  plasma concentration, mean ±SD: 0.02687 ± 0.01731 µg/mL
  plasma concentration, median: 0.02064 µg/mL
  plasma concentration, range: (14.01–52.20) ng/mL
[2]; genotype CYP2D6 wt/P, n = 26
  plasma concentration, mean ±SD: 0.02376 ± 0.02521 µg/mL
  plasma concentration, median: 0.01457 µg/mL
  plasma concentration, range: (5.01–107.10) ng/mL
[2]; genotype CYP2D6 wt/wt, n = 78
  plasma concentration, mean ±SD: 0.02647 ± 0.01789 µg/mL
  plasma concentration, median: 0.02121 µg/mL
  plasma concentration, range: (4.03–95.87) ng/mL
[2]; genotype CYP2D6 wtxN/P, n = 2
  plasma concentration, mean ±SD: 0.03609 ± 0.03208 µg/mL
  plasma concentration, median: 0.03609 µg/mL
  plasma concentration, range: (13.40–58.77) ng/mL
[2]; genotype CYP3A4 wt/*1B, n = 3
  plasma concentration, mean ±SD: 0.02231 ± 0.01086 µg/mL
  plasma concentration, median: 0.02669 µg/mL
  plasma concentration, range: (9.95–30.30) ng/mL
[2]; genotype CYP3A4 wt/*3, n = 2
  plasma concentration, mean ±SD: 0.04915 ± 0.02186 µg/mL
  plasma concentration, median: 0.04915 µg/mL
  plasma concentration, range: (33.69–64.61) ng/mL
[2]; genotype CYP3A4 wt/*17, n = 9
  plasma concentration, mean ±SD: 0.01986 ± 0.02488 µg/mL
  plasma concentration, median: 0.01194 µg/mL
  plasma concentration, range: (4.46–84.57) ng/mL
[2]; genotype CYP3A4 wt/wt, n = 107
  plasma concentration, mean ±SD: 0.0248 ± 0.01903 µg/mL
  plasma concentration, median: 0.01912 µg/mL
  plasma concentration, range: (4.03–107.10) ng/mL
[2]; genotype CYP3A5 *3/*3, n = 117
  plasma concentration, mean ±SD: 0.0251 ± 0.01966 µg/mL
  plasma concentration, median: 0.01912 µg/mL
  plasma concentration, range: (4.03–107.10) ng/mL
[2]; genotype CYP3A5 wt/*3, n = 6
  plasma concentration, mean ±SD: 0.01414 ± 0.00756 µg/mL
  plasma concentration, median: 0.01361 µg/mL
  plasma concentration, range: (5.40–23.01) ng/mL
[2]; genotype SULT1A1 *2/*2, n = 15
  plasma concentration, mean ±SD: 0.02868 ± 0.02418 µg/mL
  plasma concentration, median: 0.01982 µg/mL
  plasma concentration, range: (4.57–95.87) ng/mL
[2]; genotype SULT1A1 wt/*2, n = 46
  plasma concentration, mean ±SD: 0.02659 ± 0.01997 µg/mL
  plasma concentration, median: 0.02258 µg/mL
  plasma concentration, range: (4.18–107.10) ng/mL
[2]; genotype SULT1A1 wt/wt, n = 60
  plasma concentration, mean ±SD: 0.02243 ± 0.01779 µg/mL
  plasma concentration, median: 0.01747 µg/mL
  plasma concentration, range: (4.03–89.98) ng/mL
[2]; genotype SULT1A2 *2/*2, n = 16
  plasma concentration, mean ±SD: 0.02659 ± 0.0232 µg/mL
  plasma concentration, median: 0.02076 µg/mL
  plasma concentration, range: (4.18–95.87) ng/mL
[2]; genotype SULT1A2 *2/*3, n = 13
  plasma concentration, mean ±SD: 0.03461 ± 0.02035 µg/mL
  plasma concentration, median: 0.03202 µg/mL
  plasma concentration, range: (8.94–74.06) ng/mL
[2]; genotype SULT1A2 *3/*3, n = 5
  plasma concentration, mean ±SD: 0.02734 ± 0.0213 µg/mL
  plasma concentration, median: 0.02102 µg/mL
  plasma concentration, range: (12.13–64.61) ng/mL
[2]; genotype SULT1A2 wt/*2, n = 33
  plasma concentration, mean ±SD: 0.02884 ± 0.02378 µg/mL
  plasma concentration, median: 0.02322 µg/mL
  plasma concentration, range: (4.46–107.10) ng/mL
[2]; genotype SULT1A2 wt/*3, n = 16
  plasma concentration, mean ±SD: 0.02399 ± 0.01532 µg/mL
  plasma concentration, median: 0.01902 µg/mL
  plasma concentration, range: (7.80–51.61) ng/mL
[2]; genotype SULT1A2 wt/wt, n = 38
  plasma concentration, mean ±SD: 0.01721 ± 0.01179 µg/mL
  plasma concentration, median: 0.01478 µg/mL
  plasma concentration, range: (4.03–58.77) ng/mL
[2]; genotype SULT1E1 *2/*2, n = 5
  plasma concentration, mean ±SD: 0.01605 ± 0.00807 µg/mL
  plasma concentration, median: 0.0206 µg/mL
  plasma concentration, range: (6.74–23.01) ng/mL
[2]; genotype SULT1E1 wt/*2, n = 28
  plasma concentration, mean ±SD: 0.0243 ± 0.02087 µg/mL
  plasma concentration, median: 0.01804 µg/mL
  plasma concentration, range: (4.18–95.87) ng/mL
[2]; genotype SULT1E1 wt/wt, n = 88
  plasma concentration, mean ±SD: 0.02541 ± 0.01951 µg/mL
  plasma concentration, median: 0.01912 µg/mL
  plasma concentration, range: (4.03–107.10) ng/mL
[2]; patients not receiving CYP2D6 inhibitors
  mean plasma concentration (±SD): 0.0253 ± 0.01939 µg/mL
[2]; patients receiving CYP2D6 inhibitors concomitantly with TAM
  mean plasma concentration (±SD): 0.01555 ± 0.01777 µg/mL
